pKi: −log10 of the molar value.
Experiments:
[1] = biological target: T1, 5-hydroxytryptamine receptor 4 (Homo sapiens, UniProt Q13639); experiment: Antagonist activity (inhibition of 5-HT-stimulated cAMP synthesis) of compound at cloned human 5-hydroxytryptamine 4E receptor expressed in C6 glial cells by Schild analysis
[2] = biological target: T1, 5-hydroxytryptamine receptor 4; experiment: Binding affinity towards cloned human 5-hydroxytryptamine 4E receptor expressed in C6 glial cells using [3H]GR-113808 as radioligand; assay type: cell-based

T1 sequence (Q13639 whole entry): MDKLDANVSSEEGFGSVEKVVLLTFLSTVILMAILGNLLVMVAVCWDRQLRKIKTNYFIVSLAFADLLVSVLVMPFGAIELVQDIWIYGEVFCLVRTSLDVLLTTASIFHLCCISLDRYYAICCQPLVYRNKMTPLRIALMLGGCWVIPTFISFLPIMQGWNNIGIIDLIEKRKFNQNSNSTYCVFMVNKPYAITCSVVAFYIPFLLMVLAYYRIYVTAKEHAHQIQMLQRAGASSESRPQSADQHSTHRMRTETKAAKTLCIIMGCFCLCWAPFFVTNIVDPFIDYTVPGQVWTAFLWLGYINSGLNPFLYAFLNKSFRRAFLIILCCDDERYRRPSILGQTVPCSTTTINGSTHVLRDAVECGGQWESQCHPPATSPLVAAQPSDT

SMILES: COc1cc(N)c(Cl)cc1C(=O)OCCN1CCC(CN2C(=O)c3cccc4c(N)ccc(c34)C2=O)CC1
- Kb [1]: 9 nM
- pKi [2]: 7.19

SMILES: COc1cc(N)c(Cl)cc1C(=O)OCCN1CCC(CCCNS(=O)(=O)c2cccc3c(N(C)C)cccc23)CC1
- pKi [2]: 7.49

SMILES: COc1cc(N)c(Cl)cc1C(=O)OCCN1CCC(CNc2ccc([N+](=O)[O-])c3nonc23)CC1
- Kb [1]: 2.1 nM

SMILES: COc1cc(N)c(Cl)cc1C(=O)OCCN1CCN(C(=O)CCCCCCCCCCNS(=O)(=O)c2cccc3c(N(C)C)cccc23)CC1
- pKi [2]: 7.02

SMILES: COc1cc(N)c(Cl)cc1C(=O)OCCN1CCN(C(=O)CNS(=O)(=O)c2cccc3c(N(C)C)cccc23)CC1
- pKi [2]: 5.76

SMILES: COc1cc(N)c(Cl)cc1C(=O)OCCN1CCN(C(=O)CCNS(=O)(=O)c2cccc3c(N(C)C)cccc23)CC1
- pKi [2]: 6.94

SMILES: COc1cc(N)c(Cl)cc1C(=O)OCCN1CCC(CN2C(=O)c3cccc4c(N(C)C)ccc(c34)C2=O)CC1
- pKi [2]: 6.74

SMILES: COc1cc(N)c(Cl)cc1C(=O)OCCN1CCC(CCNS(=O)(=O)c2cccc3c(N(C)C)cccc23)CC1
- pKi [2]: 7.11

SMILES: COc1cc(N)c(Cl)cc1C(=O)OCCN1CCC(CNc2ccc([N+](=O)[O-])c3n[o+][n-]c23)CC1
- pKi [2]: 8.12

SMILES: COc1cc(N)c(Cl)cc1C(=O)OCCN1CCC(NS(=O)(=O)c2cccc3c(N(C)C)cccc23)CC1
- pKi [2]: 6.58

SMILES: COc1cc(N)c(Cl)cc1C(=O)OCCN1CCN(C(=O)CCCCCCCNS(=O)(=O)c2cccc3c(N(C)C)cccc23)CC1
- pKi [2]: 7.51

SMILES: COc1cc(N)c(Cl)cc1C(=O)OCCN1CCC(CCCCN2C(=O)c3cccc4c(N(C)C)ccc(c34)C2=O)CC1
- pKi [2]: 7.23

SMILES: COc1cc(N)c(Cl)cc1C(=O)OCCN1CCN(C(=O)CCCNS(=O)(=O)c2cccc3c(N(C)C)cccc23)CC1
- pKi [2]: 6.74

SMILES: COc1cc(N)c(Cl)cc1C(=O)OCCN1CCN(C(=O)CCCCCNS(=O)(=O)c2cccc3c(N(C)C)cccc23)CC1
- pKi [2]: 6.74

SMILES: COc1cc(N)c(Cl)cc1C(=O)OCCN1CCC(CNS(=O)(=O)c2cccc3c(N(C)C)cccc23)CC1
- Kb [1]: 5.7 nM
- pKi [2]: 8.15

SMILES: COc1cc(N)c(Cl)cc1C(=O)OCCN1CCC(CCCCNS(=O)(=O)c2cccc3c(N(C)C)cccc23)CC1
- pKi [2]: 7.62
